The source made the active and inactive calls. The rule behind the calls is not given here.
Experiments:
[1] = test system: Vibrio harveyi; assay: Activation of quorum sensing in Vibrio harveyi from 10 to 200 uM after 7 hrs by luminescence method; conditions: filed as activator, dose 10-200 µM
[2] = Activation of quorum sensing system in Pseudomonas aeruginosa JP1 assessed as increase in pyocyanin production at 100 uM measured after 6 hrs relative to control; conditions: for fold change (FC): filed as activator
[3] = test system: MDA-MB-231; assay: Synergistic anticancer activity against human MDA-MB-231 cells assessed as reduction in cell viability at 25 uM pretreated for 3 hrs followed by TRAIL stimulation measured after 24 hrs; type: functional; parameters: unit not given here; conditions: time 27 hrs
[4] = test system: MDA-MB-231; assay: Synergistic anticancer activity against human MDA-MB-231 cells assessed as reduction in cell viability at 50 uM pretreated for 3 hrs followed by TRAIL stimulation measured after 24 hrs; type: functional; parameters: unit not given here; conditions: time 27 hrs
[5] = target: T1, Transcriptional activator protein LasR (Pseudomonas aeruginosa (strain ATCC 15692 / PAO1 / 1C / PRS 101 / LMG12228)) (UniProt P25084); assay: Binding affinity to wild type Pseudomonas aeruginosa LasR expressed in Escherichia coli at 100 uM measured after 6 hrs by luminescence assay; conditions: filed as activator
T1 sequence (whole entry): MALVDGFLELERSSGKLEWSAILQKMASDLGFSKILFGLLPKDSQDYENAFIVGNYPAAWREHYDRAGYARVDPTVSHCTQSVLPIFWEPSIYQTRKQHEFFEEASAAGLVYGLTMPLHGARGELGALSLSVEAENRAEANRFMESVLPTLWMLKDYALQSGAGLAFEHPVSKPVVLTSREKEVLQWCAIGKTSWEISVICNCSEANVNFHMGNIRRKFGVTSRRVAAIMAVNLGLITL

[6] = test system: Pseudomonas aeruginosa; assay: Binding affinity to Pseudomonas aeruginosa LasR Y56F mutant expressed in Escherichia coli at 100 uM measured after 6 hrs by luminescence assay; conditions: filed as activator
[7] = test system: Pseudomonas aeruginosa; assay: Binding affinity to Pseudomonas aeruginosa LasR D73N mutant expressed in Escherichia coli at 100 uM measured after 6 hrs by luminescence assay; conditions: filed as activator
[8] = test system: Pseudomonas aeruginosa; assay: Binding affinity to Pseudomonas aeruginosa LasR W60F mutant expressed in Escherichia coli at 100 uM measured after 6 hrs by luminescence assay; conditions: filed as activator
[9] = test system: MDA-MB-231; assay: Induction of apoptosis in human MDA-MB-231 cells assessed as increase in cleaved PARP level at 50 uM by Western blot analysis; type: functional, cell-based
[10] = test system: Vibrio harveyi; assay: Activation of quorum sensing in Vibrio harveyi upto 100 uM after 7 hrs by luminescence method; conditions: filed as activator, dose microM <=100, time 7.0 hrs

SMILES | fold change (FC) [2] | Activity [3] | Activity [4] | other results
C#CCCCC[C@@H](C)C(=O)NCCCC[C@H]1C(OC)=CC(=O)N1C(=O)[C@H](C)CCCCC#C | 3 | 0.08 | 0.01 | Activity [1]: Active; Activity [5]: Active; Activity [6]: Active; Activity [7]: Active; Activity [8]: Active
CCCCCCCCCC(=O)CC(=O)N[C@H]1CCOC1=O | – | 0.05 | -0.07 | –
CCCCCC[C@@H](C)C(=O)NCCCC[C@H]1C(OC)=CC(=O)N1C(=O)[C@H](C)CCCCCC | – | 0.31 | 0.23 | –
C#CCCCC[C@@H](C)C(=O)NCCCC[C@@H]1NC(=O)C=C1OC | – | 0.02 | 0 | Activity [2]: inactive
C=CCCCC[C@@H](C)C(=O)NCCCC[C@H]1C(OC)=CC(=O)N1C(=O)[C@H](C)CCCCC=C | – | 0.31 | 0.08 | Activity [10]: Active

More lines, main results first:

fold change (FC) [2] | SMILES | Activity [3] | Activity [4] | other results
3 | C#CCCCC[C@@H](C)C(=O)N1C(=O)C=C(OC)[C@@H]1CCCCNC(=O)OC(C)(C)C | 0.18 | 0.05 | Activity [1]: Active
4 | C=CCCCC[C@@H](C)C(=O)N1C(=O)C=C(OC)[C@@H]1CCCCNC(=O)OC(C)(C)C | 0.06 | 0.02 | –
5 | CCCCCC[C@@H](C)C(=O)N1C(=O)C=C(OC)[C@@H]1CCCCNC(=O)OC(C)(C)C | 0.26 | 0.14 | Activity [9]: Active

Source: ChEMBL document CHEMBL4842305, “Bifunctional Doscadenamides Activate Quorum Sensing in Gram-Negative Bacteria and Synergize with TRAIL to Induce Apoptosis in Cancer Cells” (2021)
